According to PubChem BioAssay AID179 (DTP/NCI, 2004):
Activity calls are given as the source filed them.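 How the source made its calls: active means compounds giving half or more protection of infected cells from virus-caused growth loss, again on retest; inactive means the rest.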

Test system: CEM cells HIV-1 protection, formazan growth assay
Experiment: NCI AIDS Antiviral Assay
Conditions: for IC50: measured here: growth of uninfected CEM cells
Method in brief: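 Category rules: moderately active means at least 50% protection on retest, and confirmed active means 100% protection reproducibly. The underlying data came from a formazan growth assay in HIV-1-infected CEM cells.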

| SMILES | outcome | EC50 [µM] | IC50 [µM] |
| --- | --- | --- | --- |
| CN(C)c1cccc2c(S(=O)(=O)NCC(=O)O)cccc12 | inactive |  |  |
| C/C(CC(=O)Nc1ccc([N+](=O)[O-])cc1)=N\NC(N)=O |  | > 468 | > 468 |
| NS(=O)(=O)c1ccc(CNC(=O)c2ccccc2SC(=O)CCC[n+]2ccccc2)cc1 |  | 4.79 | 13.8 |
| Cc1cccc(C2NC(=O)N3C(c4cccc(C)c4)NC(=O)N23)c1 (stereo not given) |  | > 200 | 38 |
| CN1CC[C@]2(C)c3cc(O)ccc3CC3CCCC1C32C (stereo not given in full) | inactive |  |  |
| O=C(O)C1CC2C3CC(C(=O)O)C(C3)C2C1 (stereo not given) |  | > 200 | > 200 |
| Cc1ccc(N=Nc2c(N)nn3cc4c(nc23)CCCCC4)cc1 |  | > 200 | > 200 |
| COc1ccc(NC(=S)NNC(=O)c2nsc3ccccc23)cc1 |  | > 138 | 19.1 |
| O=NNc1nc(-c2cccnc2)nc2ccccc12 |  | > 200 | > 200 |
| O=C(O)CCSSc1ccc([N+](=O)[O-])cc1[N+](=O)[O-] |  | > 200 | 15.8 |
| Cc1ccc(Nc2nc(C)c(C(=O)CC(=O)C(=O)Nc3c(C)cccc3C(C)(C)C)s2)cc1 |  | > 200 | > 200 |
| CCOCC(/C=N/N=C(N)N)=N\N=C(N)N |  | > 759 | > 759 |
| O=[N+]([O-])C1(CO)COC2(OC1)c1ccccc1-c1ccccc12 | inactive |  |  |
| CCCCCCCCCCCCC(CC)CCCCC(=O)O (stereo not given) | inactive |  |  |
| Cc1nc(N)[nH]c(=O)c1CCCNc1ccc(C(=O)NC(CCC(=O)O)C(=O)O)cc1 (stereo not given) |  | > 200 | 2.75 |
| Cc1cc(C)c2c(c1)sc1nncn12 | inactive |  |  |
| O=C1C(=O)c2ccccc2C(O)=C1C(/C=C/c1ccccc1)C1=C(O)c2ccccc2C(=O)C1=O |  | > 200 | 9.55 |
| CN(C)C1=NC2=S(SC(Nc3ccccc3)=N2)S1 (stereo not given) | inactive |  |  |
| O=C1C2Cc3ccccc3CN2C(=O)N1CN1CCN(CN2C(=O)C3Cc4ccccc4CN3C2=O)CC1 (stereo not given) |  | > 10 | > 10 |
| Cc1ccc(NC(=O)CCc2nnc(N)o2)cc1 |  | > 380 | > 380 |
| Cc1onc(-c2c(Cl)cccc2Cl)c1C(=O)SC1=NC(C)N2C(SC(=O)c3c(-c4c(Cl)cccc4Cl)noc3C)=NC(C)N12 (stereo not given) |  | > 19.1 | 18.2 |

| SMILES | outcome | EC50 [µM] | IC50 [µM] |
| --- | --- | --- | --- |
| O=C(O)CCC(NC(=O)c1ccc(Oc2nc3ccccc3nc2C(=O)O)cc1)C(=O)O (stereo not given) |  | > 200 | > 200 |
| COc1ccc(C2c3cc4c(cc3OC(NNS(=O)(=O)c3ccc(C)cc3)C2C)OCO4)cc1 (stereo not given) |  | > 200 | 26.3 |
| C[C@]12CC[C@H]3[C@@H](CC[C@]4(O)C[C@@H](O)CC[C@]34C=O)[C@@]1(O)CC[C@@H]2C1=CC(=O)OC1 |  | > 2 | 0.24 |
| CCc1n[nH]c(=O)n1O |  | > 200 | > 200 |
| S=C1SCC2CCCN12 (stereo not given) | inactive |  |  |
| CCCN(CCC)C(=O)c1nc(N)nc(-c2ccc(OC)cc2)c1-c1ccc(OC)cc1 |  | > 16.6 | > 16.6 |
| O=C1NCC(=O)c2ncn(C3OC(CO)C(O)C3O)c2N1 (stereo not given) |  | > 603 | > 603 |
| CC1=NN(c2ccccc2)C(=O)/C1=C\N1CC(=O)NC1=S |  | > 200 | 87.1 |
| COc1cc(C2c3cc4c(cc3OC(NCCO)C2C)OCO4)cc(OC)c1OC (stereo not given) |  | > 20 | 0.24 |
| [O-]c1c2cc(-[n+]3c(-c4ccccc4)cc(-c4ccccc4)cc3-c3ccccc3)cc1CO[C@@H](c1ccccc1)[C@H](c1ccccc1)OCc1cccc(n1)CO[C@@H](c1ccccc1)[C@H](c1ccccc1)OC2 |  | > 1 | 0.0794 |
| COc1c(O)c2c(=O)cc(OC)c3c4c(OC)cc(=O)c5c(O)c(OC)c6c(c(c1C(C(C)O)C6C(C)O)c23)c54 (stereo not given) |  | > 2 | 0.339 |
| [N-]=[N+]=C1N=CN=C1c1ncn[nH]1 |  | > 200 | 4.07 |
| CCCCCCCCCCCCCCCCCC(=O)OCC(COC(=O)CCCN)OC(=O)CCCN (stereo not given) | inactive |  |  |
| CCOC(=O)C1=C(C)N(c2ccccc2)C2=C(C(=O)N(c3ccccc3)C2c2ccccc2)C1c1ccccc1 (stereo not given) |  | > 67.6 | > 67.6 |
| C=CCNC(=O)NC(=O)CSC1=NNC2(C(=O)N1)c1ccccc1-c1ccccc12 |  | > 200 | 29.5 |
| COc1cccc2c1CCc1ccccc1CC2=O |  | > 53.7 | > 53.7 |
| COc1ccc(CC2C(=O)NC(=O)NC2=O)cc1OC |  | > 200 | > 200 |
| CC(C)(C)[Si](C)(C)OC1CCOC1(O)c1ccccn1 (stereo not given) |  | > 200 | 66.1 |
| CC(=O)OCC(OC(C)=O)C(OC(C)=O)C(OC(C)=O)C(=O)CNn1c(-c2ccc(C)cc2)nc2ccccc2c1=O (stereo not given) | inactive |  |  |
| CC(=O)OCC(=O)[C@@]1(O)CC[C@H]2[C@@H]3C[C@H](C)C4=CC(=O)C=C[C@]4(C)[C@@]3(F)[C@@H](O)C[C@@]21C | inactive |  |  |
| CCOC(=O)C(NC(=O)c1ccccc1)(Nc1ccc(S(=O)(=O)Nc2ncccn2)cc1)C(F)(F)F (stereo not given) |  | > 200 | > 200 |

| SMILES | outcome | EC50 [µM] | IC50 [µM] |
| --- | --- | --- | --- |
| c1ccc(C2=NN3CN(N2)c2ccccc2OCCCOc2ccccc23)cc1 |  | > 200 | 105 |
| CC(C)(Cc1ccccc1)C(=C=C=C=C(c1ccccc1)C(C)(C)Cc1ccccc1)c1ccccc1 |  | > 46.8 | > 46.8 |
| Cc1cc2c(cc1Cl)S(=O)(=O)OC(c1ccc([N+](=O)[O-])cc1)=N2 |  | > 200 | 115 |
| COc1ccc(Nc2nc3ccc(C(F)(F)F)cc3nc2-c2ccccc2)cc1OC |  | > 17 | > 17 |
| Cc1cc(Br)c2nsnc2c1[N+](=O)[O-] |  | > 26.3 | 2.57 |
| O=S1CCS(=O)CCS(=O)CC1 (stereo not given) |  | > 16.6 | > 16.6 |
| O=C(N/N=C/c1ccccc1)c1c(F)c(F)c(F)c(F)c1F |  | > 200 | 112 |
| C/C(C=O)=C\c1ccc([N+](=O)[O-])cc1 |  | > 135 | 75.9 |
| CC1(C)COC2(OC1)C1=NS(=O)(=O)CC13CCC2C3(C)C (stereo not given) |  | > 57.5 | > 57.5 |
| C/C(=N\[N+](C)(C)C)c1ccc(C)c(C)c1 |  | > 200 | 102 |
| COc1ccc(CNc2nc3ccccc3nc2C(=O)O)cc1OC |  | > 200 | 95.5 |
| CN(C)CCNC(=O)Cn1ccc(=O)c2cc([N+](=O)[O-])ccc21 |  | > 200 | > 200 |
| CC(C)N(C(=O)C12C3C4C1C1C2C3C41C(N)=O)C(C)C (stereo not given) |  | > 912 | > 912 |
| COc1ccc(Cc2c3cc(OC)c(OC)cc3cc[n+]2C)cc1 |  | > 550 | 107 |
| CO/C=C/c1cc2c(cc1C(OC)OC)OCO2 | inactive |  |  |
| CC(=O)[O-].CC(=O)[O-].CC(=O)[O-].CC(=O)[O-].CO.CO.CO.[Rh+2].[Rh+2].c1ccc(-c2ccccn2)nc1 |  | 145 | 174 |
| c1ccc2c(c1)CCN(C1=NCCO1)C2 |  | > 200 | 178 |
| Nc1ccc(/C=C2\C=Cc3ccccc32)cc1 |  | > 200 | 28.2 |
| O=C1OC(c2ccccc2)(c2ccccc2)c2ccsc21 |  | > 200 | 69.2 |
| CCOC(=O)/C(C(N)=O)=C(/O)c1cnccn1 |  | > 200 | > 200 |
| O=c1oc2cccnc2n1CCCCN1CCN(c2ccccc2)CC1 |  | > 200 | 126 |
